Test results published in ChEMBL document CHEMBL1201862, “PubChem BioAssay data set” (2004).
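Where inhibition never reached the appropriate level, the endpoint shown equals the highest concentration tested. Otherwise, values were interpolated linearly from a five-concentration, 48-hour dose response in 96-well plates. GI50 = concentration required for 50% inhibition of growth.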 Active and inactive are the calls of the source. Cut-off read from the data, not from the text of the source: active = GI50 up to about 1.1 µM and inactive = higher.

Key:
Test in all cases: NCI anticancer screen, dose series, 48 h
NCI-H460 = tested on: NCI-H460
SK-MEL-2 = tested on: SK-MEL-2
HCT-116 = tested on: HCT-116
UACC-62 = tested on: UACC-62
SK-MEL-5 = tested on: SK-MEL-5
UACC-257 = tested on: UACC-257
OVCAR-3 = tested on: OVCAR-3
SK-OV-3 = tested on: SK-OV-3
SNB-19 = tested on: SNB-19
OVCAR-5 = tested on: OVCAR-5
SF-268 = tested on: SF-268
IGROV-1 = tested on: IGROV-1
EKVX = tested on: EKVX
SW-620 = tested on: SW-620
RPMI-8226 = tested on: RPMI-8226
OVCAR-4 = tested on: OVCAR-4
KM12 = tested on: KM12
CAKI-1 = tested on: CAKI-1
RXF 393 = tested on: RXF 393
SF-539 = tested on: SF-539

Measured: GI50

CC(C)C(=O)OCC1OC(n2c(Br)nc3c(=O)[nH]c(N)nc32)C(OC(=O)C(C)C)C1OC(=O)C(C)C (stereo unspecified)
inactive: NCI-H460 23.7 µM | SK-MEL-2 68.1 µM | HCT-116 30.1 µM | UACC-62 31.8 µM | SK-MEL-5 > 10 µM | UACC-257 > 100 µM | OVCAR-3 > 100 µM | SK-OV-3 30.3 µM | SNB-19 81.8 µM | OVCAR-5 75.2 µM | SF-268 37.1 µM | IGROV-1 > 10 µM | EKVX > 100 µM | SW-620 29.2 µM

Cn1c2c(c3ccccc31)CC(=O)N1CCCC(C1)CC21OCCO1 (stereo unspecified)
inactive: NCI-H460 > 100 µM | SK-MEL-2 > 100 µM | RPMI-8226 > 100 µM | HCT-116 41.7 µM | OVCAR-4 > 100 µM | KM12 > 100 µM | UACC-62 > 100 µM | SK-MEL-5 > 100 µM | UACC-257 > 100 µM | CAKI-1 > 100 µM | OVCAR-3 > 100 µM | SK-OV-3 > 100 µM | SNB-19 > 100 µM | OVCAR-5 > 100 µM | SF-268 > 100 µM | IGROV-1 > 100 µM | RXF 393 13.6 µM | EKVX > 100 µM | SW-620 > 100 µM

CN(NC1OC(CO)C(O)C(O)C1O)c1ccccc1 (stereo unspecified)
inactive: NCI-H460 > 100 µM | RPMI-8226 > 100 µM | HCT-116 > 100 µM | OVCAR-4 > 100 µM | KM12 > 100 µM | UACC-62 > 100 µM | SK-MEL-5 > 100 µM | UACC-257 > 100 µM | CAKI-1 > 100 µM | OVCAR-3 > 100 µM | SNB-19 > 100 µM | OVCAR-5 > 100 µM | SF-268 > 100 µM | IGROV-1 > 100 µM | RXF 393 > 100 µM | SW-620 > 100 µM

OCC1OC(n2nc(-c3ccccc3)nc2-c2cnccn2)C(O)C(O)C1O (stereo unspecified)
inactive: NCI-H460 > 100 µM | RPMI-8226 > 100 µM | HCT-116 > 100 µM | OVCAR-4 > 100 µM | KM12 > 100 µM | UACC-62 > 100 µM | SK-MEL-5 > 100 µM | UACC-257 > 100 µM | OVCAR-3 > 100 µM | SK-OV-3 > 100 µM | SNB-19 > 100 µM | OVCAR-5 > 100 µM | SF-539 > 100 µM | IGROV-1 > 100 µM | SW-620 > 100 µM

O=C1NC(=O)C(C(CC(=O)c2ccc(Cl)cc2)c2ccc(Cl)cc2)C(=O)N1 (stereo unspecified)
inactive: NCI-H460 > 100 µM | SK-MEL-2 > 100 µM | RPMI-8226 33.7 µM | HCT-116 34 µM | OVCAR-4 > 100 µM | KM12 37.8 µM | UACC-62 > 100 µM | SK-MEL-5 > 100 µM | UACC-257 > 100 µM | OVCAR-3 60.4 µM | SNB-19 > 100 µM | OVCAR-5 > 100 µM | SF-539 18 µM | SF-268 36.2 µM | IGROV-1 > 100 µM | EKVX 17.1 µM | SW-620 > 100 µM

O=C1Nc2ccc(Br)cc2/C1=N/Nc1ccc([N+](=O)[O-])cc1[N+](=O)[O-]
inactive: SK-MEL-2 2.13 µM | RPMI-8226 2.81 µM | HCT-116 1.55 µM | KM12 4.13 µM | UACC-62 3.85 µM | SK-MEL-5 1.83 µM | UACC-257 3.89 µM | CAKI-1 13.9 µM | OVCAR-3 5.82 µM | SK-OV-3 12.5 µM | SNB-19 4.71 µM | SF-268 4.33 µM | IGROV-1 7.74 µM | RXF 393 4.15 µM | EKVX 11.3 µM | SW-620 3.18 µM

CCOC(=O)c1cc(C(=O)c2ccccc2)n2nc(-c3ccc(Cl)cc3)ccc12
inactive: NCI-H460 22.1 µM | SK-MEL-2 17.4 µM | RPMI-8226 91.2 µM | HCT-116 44.7 µM | OVCAR-4 16.6 µM | KM12 20 µM | UACC-62 17.3 µM | SK-MEL-5 17.4 µM | UACC-257 30.1 µM | CAKI-1 31.8 µM | SK-OV-3 17 µM | SNB-19 16.4 µM | OVCAR-5 23.3 µM | SF-268 13.5 µM | IGROV-1 18.7 µM | RXF 393 15.2 µM | EKVX 21.8 µM | SW-620 93.8 µM

COc1ccc(C2=Nc3ccccc3SC(C)C2)cc1OC (stereo unspecified)
inactive: NCI-H460 19.2 µM | SK-MEL-2 30.3 µM | RPMI-8226 13.8 µM | HCT-116 17.7 µM | OVCAR-4 22.1 µM | KM12 16.8 µM | UACC-62 17.8 µM | SK-MEL-5 17.9 µM | UACC-257 23.5 µM | CAKI-1 19.6 µM | OVCAR-3 16.6 µM | SK-OV-3 20.3 µM | SNB-19 20.2 µM | OVCAR-5 24.7 µM | SF-268 22 µM | IGROV-1 14.6 µM | EKVX 24.5 µM | SW-620 5.66 µM

O=S(=O)(O)c1cc(S(=O)(=O)O)c2c(/N=N/c3ccccc3)c(O)ccc2c1
inactive: SK-MEL-2 > 100 µM | RPMI-8226 > 100 µM | HCT-116 > 100 µM | OVCAR-4 > 100 µM | KM12 > 100 µM | UACC-62 > 100 µM | SK-MEL-5 > 100 µM | UACC-257 > 100 µM | CAKI-1 > 100 µM | OVCAR-3 > 100 µM | SK-OV-3 > 100 µM | SNB-19 > 100 µM | OVCAR-5 > 100 µM | SF-268 > 100 µM | IGROV-1 > 100 µM | RXF 393 > 100 µM | SW-620 > 100 µM

CC1CC(=O)C2CC(CO)=CCCC2C1(C)CC/C(=C/CO)CO (stereo unspecified)
inactive: NCI-H460 > 100 µM | RPMI-8226 > 100 µM | HCT-116 > 100 µM | KM12 > 100 µM | UACC-62 > 100 µM | SK-MEL-5 > 100 µM | UACC-257 > 100 µM | CAKI-1 > 100 µM | OVCAR-3 > 100 µM | SK-OV-3 > 100 µM | IGROV-1 > 100 µM | RXF 393 > 100 µM | EKVX > 100 µM | SW-620 > 100 µM

COc1ccc(C2=C(OC(=O)N(C)C)c3cccn3-c3cc(Cl)ccc3S2)cc1
inactive: RPMI-8226 2.73 µM | OVCAR-4 6.79 µM | KM12 > 10 µM | UACC-62 > 10 µM | SK-MEL-5 > 10 µM | UACC-257 > 10 µM | CAKI-1 > 10 µM | SK-OV-3 > 10 µM | SF-268 > 10 µM | IGROV-1 > 10 µM | RXF 393 > 10 µM | EKVX > 10 µM | SW-620 > 10 µM

Cn1c(O)c(C2=Nc3ccccc3C2=O)c2ccccc21
inactive: NCI-H460 > 100 µM | SK-MEL-2 > 100 µM | RPMI-8226 > 100 µM | HCT-116 > 100 µM | OVCAR-4 > 100 µM | KM12 > 100 µM | UACC-62 > 100 µM | SK-MEL-5 > 100 µM | UACC-257 > 100 µM | CAKI-1 > 100 µM | OVCAR-3 > 100 µM | SK-OV-3 > 100 µM | SNB-19 > 100 µM | OVCAR-5 > 100 µM | SF-268 > 100 µM | IGROV-1 > 100 µM | RXF 393 > 100 µM | EKVX > 100 µM | SW-620 > 100 µM
